Test results reported in US10058582B2, “Therapeutic molecules and deviates for CRC” (ANTARTINA LLC, priority 2015, dated 2018).

How the values were obtained:
[1] = test system: CT26 cells injected into the liver; assay: Liver metastatic CRC model; type: in vivo, BALB/c mice
Protocol: BALB/c mice received an intra-hepatic inoculation of 5×10^5 CT26 cells (day 0). The mice were distributed in experimental groups and treated with saline (control group, n=6); Antartina (5 mg/kg i.p., n=8 day 8). At day 18, animals were sacrificed and the volume of metastatic nodules was measured with caliper.

[2] = test system: CT26 cells; assay: Cell viability assay (MTS, 490 nm); type: cell-based, mouse
Protocol: Mouse CT26 tumor cell line, an undifferentiated murine colorectal carcinoma (CRC) cell line established from a N-nitroso-N-methylurethan-induced transplantable tumor in BALB/c (H-2d) mice and BNL hepatoma cell line was kindly provided by Prof. Jesús Prieto, University of Navarra, Spain. CT26 and BNL were cultured in complete DMEM (2 mM glutamine, 100 U/ml penicillin, […] streptomycin) and 10% heat-inactivated fetal bovine serum (FBS) and incubated at 37° C. in a 5% CO2 humidified atmosphere.
Antartina was dissolved in 0.1% DMSO and sterile water an injected intraperitoneally (i.p.) at the doses indicated or used for in vitro assays at different concentrations (0.1; 1 and 10 µg/ml). Fluorouracil Rontag® (5-Fu) 500 mg was diluted in saline solution at indicated concentrations (0.1; 1 and 10 µg/ml).
CT26 cells were plated onto 96-well plates at a density of 5×10^3 cells/well and cultured with DMEM or Antartina at different doses (0.1-1-10 […]at different doses (0.1-1-10 DMEM or y of 5×10t indicated concentrations (0.1; 1 and 10 nd 10 ions (0.1; 1 and 10 mental for 4 hour after which the absorbance of each well was read at 490 nm. All assays were performed in quadruplicate, and each assay was repeated twice.

[3] = test system: CT26 cells; assay: Cell cycle analysis (propidium iodide, flow cytometry); type: cell-based, mouse; conditions: 48 h and 72 h, Antartina 10 µg/ml
Protocol: 1×10^6 CT26 cells cultured with DMEM or Antartina were collected washed in PBS and fixed in a mixture of ice-cold 70% (v/v) ethanol, FBS and distill water. Fixed cells were centrifuged and stained with propidium iodide (PI) solution (50 μg/ml PI, 180 U/ml RNAse). DNA content was determined using a FACS Accuri 6 laser flow cytometer (Becton Dickinson).

[4] = test system: CT26 CRC tumors; assay: Subcutaneous CRC model; type: in vivo, BALB/c mice; conditions: for microscopic examination of tumor sections (H & E): 10 and 15 days after treatment
Protocol: Subcutaneous CRC model: CT26 cells were injected at a dose of 5×10^5 cells subcutaneously (s.c.) into the right flank of BALB/c mice (day 0). Tumors were allowed to reach approximately 90 mm^3 in size before treatment was started. Animals were distributed in different groups and then treated with Antartina or 0.1% DMSO in sterile water intraperitoneal (i.p.) (control group, n=6); Antartina (5 or 50 mg/kg i.p., day 8, n=9). Tumor growth was assessed by caliper measurement.
tumor samples from experimental groups were obtained 10 and 15 days after treatment and fixed in 10% phosphate-buffered formalin. Five-micrometer sections from paraffin-embedded tissues were stained with hematoxylin and eosin (H & E) for histologic examination.

[5] = test system: CT26 cells; assay: CTL cytotoxicity assay (LDH release), CT26 targets; type: cell-based, mouse; conditions: splenocytes of treated cured mice, p<0.001
Protocol: (§1) viable splenocytes from control or treated mice (10×10^6) were stimulated in vitro with mitomycin C-treated CT26 cells (10×10^5 cells/well in 24-well-plates). On day 5, cells were harvested and washed, adjusted to 2×10^6/mL, and added to 96-well-plate (effector cells). To determine specific CTL cytotoxicity activity CT26 and BNL cells were used as target at 2×10^5/mL. After incubation for 4 h at 37° C., plates were centrifuged and cell-free supernatants were obtained. Levels of released LDH were evaluated with the LDH Cytotoxicity Detection Kit (Sigma-Aldrich) following the manufacturer's instructions and expressed as percentage of lysis.

[6] = Toxicity studies; type: in vivo, BALB/c mice
Protocol: BALB/c mice untreated or treated with Antartina (5 mg/kg and 50 mg/kg) were used to assess its toxicology profile. […] Aspartate aminotransferase (AST) and alanine aminotransferase (ALT) levels were measured by standard colorimetric methods. Also, healthy mice or mice receiving Antartina were sacrificed to collect liver, spleen, and kidney samples. Paraffin embedded tissues were stained with H & E for pathological analysis.

[7] = test system: CT26 CRC cells; assay: Long-term protection study (re-challenge); type: in vivo, BALB/c mice; conditions: 3 weeks after complete tumor regression, 5×10^5 cells left flank
Source text: to evaluate protective immunity, animals that were free of disease at 3 wk after complete regression of primary tumors (7 week after first tumor inoculation) were challenged with 5×10^5 CT26 cells on the left flank.

[8] = test system: BNL cells; assay: CTL cytotoxicity assay (LDH release), BNL targets; type: cell-based, mouse; conditions: splenocytes of treated mice, in vitro
Protocol: as §1

[9] = test system: tumor-infiltrating CD4+ and CD8+ T cells; assay: Flow cytometry of tumor-infiltrating T lymphocytes; type: in vivo, BALB/c mice; conditions: day 18, p<0.05
Protocol: previously, single cell suspensions were obtained by mechanical disruption of tumor samples treated with 0.5 mg/ml Collagenase I at 37° C. for 45 min and washed with PBS 1% bovine serum albumin. Then, tumor cells were stained with PECy5-anti-CD4 (BD Biosciences) and AlexaFluor488-anti-CD8 (BD Biosciences) and their respective isotypes and subjected to flow cytometry (FACSAria, BD). Data were analyzed using Cyflogic v. 1.2.1 software.

[10] = test system: hepatocellular carcinoma; assay: Hepatocellular carcinoma in mice with advanced fibrosis (preliminary, data not shown); type: in vivo

COc1cc(-c2cc(=O)c3c(O)cc(O[C@@H]4O[C@H](CO)[C@@H](O)[C@H](O)[C@H]4O)cc3o2)cc(OC)c1O [Antartina, Tricin 7-O-β-D-glucopyranoside]
treated animals showing a reduction in metastases growth ([1]; 5 mg/kg i.p.): more than 60%
mean of tumor volume ([1]; 5 mg/kg i.p. from day 8, day 18 after inoculation, control 1508±204): 955±275 mm^3
survival vs controls ([1]; 5 mg/kg i.p., liver metastatic model, p<0.01): superior
CT26 cell survival ([2]; 48 h, highest concentration, p<0.05): inhibits CT26 cell survival
cell viability reduced to ([2]; 72 h, 10 µg/ml, p<0.001): ~50%
cell viability reduced ([2]; 72 h, 1 µg/ml, p<0.05): more than 20%
cell cycle pattern [3]: arrested at G2/M phase
cell cycle pattern ([3]; listed as Antarina): halted CT26 cells at the transition from G2 to M-phase
tumor growth vs saline control ([4]; 5 mg/kg i.p., from day 8 three times a week, over 30 days): significant inhibition of tumor growth
survival rate vs controls ([4]; 5 mg/kg i.p., s.c. CT26 model): significantly increased
complete tumor regression, percent of mice ([4]; 50 mg/kg i.p.): more than 30%
tumor volume ([4]; 50 mg/kg i.p. from day 8): potent tumor volume reduction
complete tumor regression, mice of group ([4]; 50 mg/kg i.p., n=9): 3/9
animal survival vs saline control ([4]; 50 mg/kg i.p., p<0.01): significantly increased
microscopic examination of tumor sections (H & E) ([4]; 50 mg/kg i.p.): extensive areas of necrosis and marked mononuclear cells infiltration
microscopic examination of tumor sections (H & E) ([4]; 50 mg/kg i.p., listed as Antarina): intense mononuclear infiltrate and extensive areas of necrosis
specific CTL activity against CT26 cells [5]: potent activation of specific cytotoxic T lymphocytes
specific CTL activity against CT26 cells ([5]; listed as Antarina): potent CTL activity against CT26 cells
H & E stained tissues (liver, spleen, kidney) ([6]; 5 mg/kg and 50 mg/kg): no signs of toxicity
body weight gain in both groups ([6]; 5 and 50 mg/kg): similar
general health of animals ([6]; 5 and 50 mg/kg): remained healthy
tolerability, clinical and biochemical toxicity (AST, ALT) ([6]; 5 and 50 mg/kg, observed more than 30 days): well tolerated with no evident signs of clinical and biochemical toxicity
re-challenge of cured animals with CT26 cells [7]: rejected in all animals
CTL activity against BNL cells [8]: no CTL activity
proportion of tumor-infiltrating CD4+ and CD8+ T cells vs control [9]: increased proportion
antitumoral activity in vivo against hepatocellular carcinoma [10]: antitumoral activity
